For series [1], the system named is Sarcoma-180. The experiment in a line: Cytotoxicity against mouse Sarcoma 180 cells after 1 to 3 days by coulter counter analysis. It is filed as functional, cell-based.
Series [2] can be described thus: Antiviral activity against HSV1 CL-101 infected in African green monkey Vero cells assessed as reduction of viral titer at 200 uM after 40 hrs. Type of series: functional, Herpes simplex virus (type 1 / strain CL101).
A short description of series [3]: Therapeutic index, ratio of cytotoxicity against African green monkey Vero cells to antiviral activity against HSV1 CL-101. It is filed as cell-based. The note with it: read-out: TI.
The nature of series [4]: Antiviral activity against HSV1 CL-101 infected in African green monkey Vero cells assessed as reduction of viral titer at 50 uM after 40 hrs. Type of series: functional, Herpes simplex virus (type 1 / strain CL101).
Series [5] deals with Vero. The experiment in a line: Cytotoxicity against African green monkey Vero cells at 1 uM after 3 days by haemocytometer analysis. It is filed as cell-based. The note with it: chlorocebus sabaeus, 72 h.

This is an account of results in ChEMBL document CHEMBL3271973, “Synthesis and biological activities of 5-trifluoromethyl-5'-azido-2',5'-dideoxyuridine and 5-trifluoromethyl-5'-amino-2',5'-dideoxyuridine” (J Med Chem, 1976).

Active and inactive are the calls of the source. The calls are words filed in the database; no cut-off is given here.

In the case of `NC[C@H]1O[C@@H](n2cc(C(F)(F)F)c(=O)[nH]c2=O)C[C@@H]1O`, the result in series [1] was Active. In series [2], the Activity came to 1 ×10⁵ PFU. Also, in series [3], the selectivity ratio amounted to 10.

As to `[N-]=[N+]=NC[C@H]1O[C@@H](n2cc(C(F)(F)F)c(=O)[nH]c2=O)C[C@@H]1O`, in series [1], the result was Active. Also, the Activity in series [2] worked out at 1.7 ×10⁶ PFU.

For `O=c1[nH]c(=O)n([C@H]2C[C@H](O)[C@@H](CO)O2)cc1C(F)(F)F` [TRIFLURIDINE], the outcome in series [1] was Active. In addition, the Activity in series [4] was 1.5 ×10⁵ PFU; in series [5], “Toxic”.
